Test results taken from patent US20190119193A1, “COMPOSITION FOR REGULATING PLANT GROWTH, METHOD FOR TREATING PLANTS THEREWITH, AND ACTIVE INGREDIENT THEREOF” (Ivan Aleksandrovich Starikov, priority 2016, published 2019).

System: spring wheat of “Lubava” variety
Assay: Field tests of DMOA and DEOA on wheat
Type: in vivo
Conditions: for Effect on wheat growth, yield and quality (in words): aqueous solutions in the proposed concentrations, field test under stress (abundant rainfalls)
Procedure: After that DMOA and DEOA were separately dissolved in dimethyl sulfoxide to give solutions of 10 g/L concentration, then water was added to give aqueous solutions of DMOA with the concentrations of 5.5·10^−8 M, 5.5·10^−9 M, 1.8·10^−9 M, 5.5·10^−10 M, 1.8·10^−10 M, 1.8·10^−11 M, and DEOA with the concentrations of 4.8·10^−8 M, 4.8·10^−9 M, […], 4.8·10^−10 M, 1.6·10^−10 M, 1.6·10^−11 M.
The field tests of the obtained aqueous solutions of DMOA and DEOA on spring wheat of “Lubava” variety were carried out. The tests were carried out in agroclimatic zone I, on the experimental field of the Grain Crops Protection Systems Laboratory of the Agricultural Research Center of Federal State Budgetary Scientific Institution “Moscow Research Institute of Agriculture” “Nemchinovka” “(Moscow Region, Odintsovo district, settlement Novoivanovskaya, 2015) according to the method adopted for registration tests of plant growth regulators (Guidelines for conducting registration tests of new forms of fertilizers, bioregulators and plant regulators. Moscow-Vladimir, 2009, p. 104; The method of state variety testing of agricultural crops. Grain, cereal, grain legumes and forage crops. Issue 1, Moscow, 1985, page 269, Issue 2, Moscow, 1989, p. 194; OST 10-108-87; GOST 26212-91; GOST-91).
The soil of the experimental field is sod-podzolic on clay loam mantle.
Tests were conducted starting from Apr. 29 to Jul. 30, 2015. In the first half of the growing period the weather conditions were unfavorable (abundant rainfalls in May and June), which is a significant stress factor.
Control test—without growth regulators treatment.
Area of experimental plots—100 m^2, accounting area—50 m^2. Fourfold replication of the experiments.
Preceding crop was winter wheat. Immediately after the autumn harvesting of winter crops the area was treated with disc harrow to a depth of 10-12 cm. Then, fall plowing to a depth of 18-20 cm by a reverse plow, harrowing, and moisture conservation were carried out.
Before seeding the test crop, the soil was fertilized with nitrogen-phosphorus-potassium fertilizer in a dose of N64P64K64. Date of sowing: Apr. 29, 2015 Seeding rate: 5.0 million of germinated grains per 1 hectare.
Before seeding, all the seeds were treated with “Vincite Forte” fungicide with a consumption rate of 1.0 L per ton of seeds, as well as the aqueous solution of DMOA or DEOA selected for the experiment with a consumption rate of 10 L per ton of seeds (this aqueous solution was directly used as a liquid for treatment) or without a growth regulator, depending on the experiment. The following concentrations of the test solutions were used for treatment: 5.5·10^−8 M, 5.5·10^−9 M and 5.5·10^−10 M of DMOA; 4.8·10^−8 M, 4.8·10^−9 M and 4.8·10^−10 M of DEOA.
At the tillering phase (May 23) the crops were sprayed against weeds with “Linthur” herbicide at a dose of 175.0 g/ha, pesticides “BI-58 Novy” were used against pests at a dose of 0.5 L/ha, and against the leaf-stems diseases the crops were sprayed at the early ear emergence stage (June 20) with “Alto Super” fungicide at a dose of 0.5 L/ha together with aqueous solutions of DMOA or DEOA (or without them). Spraying with aqueous solutions of DMOA or DEOA allows to additionally stimulate plant growth. In this case the dosage of aqueous solutions of DMEA or DEOA was 300 L/ha (these solutions were sprayed directly). Spraying with aqueous solutions of DMEA and DEOA was carried out for all variants, where DMOA and DEOA were used for seed treatment. The concentration of the spraying solution was one-thirtieth of the concentration of the solution previously used for treatment of seeds. Accordingly, for DMOA: 1.8·10^−9 M, 1.8·10^−10 M, 1.8·10^−11 M; and for DEOA: 1.6·10^−9 M, 1.6·10^−10 M, 1.6·10^−11 M.
Harvesting of experimental plots was carried out on July 30, before harvesting test sheaves of 0.25 m^2 of each variant of the experiment were taken for structural analysis. […]

[1] = seeds treated 4.8 · 10^−8M, sprayed 1.6·10^−9 M
[2] = seeds treated 4.8 · 10^−9M, sprayed 1.6·10^−10 M
[3] = seeds treated 4.8 · 10^−10M, sprayed 1.6·10^−11 M
[4] = seeds treated 5.5 · 10^−8M, sprayed 1.8·10^−9 M
[5] = seeds treated 5.5 · 10^−9M, sprayed 1.8·10^−10 M
[6] = seeds treated 5.5 · 10^−10M, sprayed 1.8·10^−11 M

CCOC(=O)C=C([O-])C(=O)OCC.[Na+] [DEOA, sodium salt of diethyl ester of oxaloacetic acid]
Effect on wheat growth, yield and quality (in words): express ability to stimulate growth, increase yield and quality of wheat | 1000 grains weight [1]: 48.15 g | Gluten [1]: 31.85 % dry basis | Main head length [1]: 8.6 cm | Number of grains from main head [1]: 39 pcs | Number of stems [1]: 612 pcs/m^2 | Plant height [1]: 101.7 cm | Productive tilling capacity [1]: 1.34 | Protein (N 5.7) [1]: 14.88 % dry basis | Starch [1]: 61.15 % dry basis | Weight of grains from main head [1]: 1.91 g | Yield [1]: 5.50 t/ha | Yield, % (comparing to control) [1]: 112.7% | 1000 grains weight [2]: 46.88 g | Gluten [2]: 32.91 % dry basis | Main head length [2]: 9.2 cm | Number of grains from main head [2]: 41 pcs | Number of stems [2]: 408 pcs/m^2 | Plant height [2]: 99.4 cm | Productive tilling capacity [2]: 1.33 | Protein (N 5.7) [2]: 14.95 % dry basis | Starch [2]: 61.43 % dry basis | Weight of grains from main head [2]: 1.96 g | Yield [2]: 5.32 t/ha | Yield, % (comparing to control) [2]: 109.0% | 1000 grains weight [3]: 48.38 g | Gluten [3]: 31.61 % dry basis | Main head length [3]: 10.8 cm | Number of grains from main head [3]: 51 pcs | Number of stems [3]: 324 pcs/m^2 | Plant height [3]: 104.3 cm | Productive tilling capacity [3]: 1.69 | Protein (N 5.7) [3]: 14.14 % dry basis | Starch [3]: 61.60 % dry basis | Weight of grains from main head [3]: 2.65 g | Yield [3]: 5.00 t/ha | Yield, % (comparing to control) [3]: 102.5%

Sodium salt of dimethyl ester of oxaloacetic acid [DMOA]
Effect on wheat growth, yield and quality (in words): express ability to stimulate growth, increase yield and quality of wheat | 1000 grains weight [4]: 46.22 g | Gluten [4]: 33.64 % dry basis | Main head length [4]: 8.7 cm | Number of grains from main head [4]: 36 pcs | Number of stems [4]: 420 pcs/m^2 | Plant height [4]: 101.5 cm | Productive tilling capacity [4]: 1.57 | Protein (N 5.7) [4]: 14.88 % dry basis | Starch [4]: 61.54 % dry basis | Weight of grains from main head [4]: 1.76 g | Yield [4]: 6.44 t/ha | Yield, % (comparing to control) [4]: 131.9% | 1000 grains weight [5]: 47.07 g | Gluten [5]: 34.71 % dry basis | Main head length [5]: 8.9 cm | Number of grains from main head [5]: 37 pcs | Number of stems [5]: 752 pcs/m^2 | Plant height [5]: 105.1 cm | Productive tilling capacity [5]: 1.21 | Protein (N 5.7) [5]: 14.92 % dry basis | Starch [5]: 61.72 % dry basis | Weight of grains from main head [5]: 1.79 g | Yield [5]: 6.49 t/ha | Yield, % (comparing to control) [5]: 133.0% | 1000 grains weight [6]: 46.51 g | Gluten [6]: 33.81 % dry basis | Main head length [6]: 8.8 cm | Number of grains from main head [6]: 37 pcs | Number of stems [6]: 396 pcs/m^2 | Plant height [6]: 104.1 cm | Productive tilling capacity [6]: 1.48 | Protein (N 5.7) [6]: 14.73 % dry basis | Starch [6]: 61.27 % dry basis | Weight of grains from main head [6]: 1.71 g | Yield [6]: 6.41 t/ha | Yield, % (comparing to control) [6]: 131.4%
